Laboratory results: patent US12071404B2, “Aza (indole)-, benzothiophene-, and benzofuran-3-sulfonamides” (UCB Pharma GmbH, priority 2016, dated 2024)

What follows are compounds tested against T1, GPR17 (Homo sapiens, UniProt Q13304) (assay: Calcium mobilization functional assay (GPR17 Ca2+ assay)). Conditions: CHO hGPR17 cells, inhibition of 50 nM MDL29,951, Calcium 5 dye, FLIPR; read-out: Ca2+ assay pIC50 (converted).
Format: cell-based
Set-up: host or cells: Flp-In T-REx CHO
Experimental: (§1) Flp-In T-REx CHO cells stably expressing human GPR17 receptor (CHO hGPR17) from Evi Kostenis' lab (Bonn University, Germany) were cultured at 37° C. in a humidified atmosphere of 5% CO2. Cells were grown in DMEM with Nutrient Mixture F-12 supplemented with hygromycin B (500 μg/mL) and blasticidin (30 μg/mL). Expression from the Flp-In locus was induced by treatment with doxycycline (1 μg/mL) for 16-20 h prior assays.
GPR17 is a G-protein coupled receptor. GPR17 activation triggers Gq-type G-protein signaling resulting in endoplasmic reticulum calcium (Ca^2+) stores release in cytosol which can be measured using Calcium 5 dye, a fluorescent indicator dye of cytosolic Ca^2+ levels. All Examples were tested in GPR17 Ca^2+ assay to determine (screen) their GPR17 modulating activity.
CHO hGPR17 were defrosted and seeded at a density of 20,000 cells per well into black 384-well plates with clear bottom. Cells were incubated overnight at 37° C. in a humidified atmosphere of 5% CO2. Sixteen to twenty hours after seeding, CHO hGPR17 were loaded for 60 min with Calcium 5 dye, a cytosolic Ca^2+ indicator fluorescent dye, according to manufacturer's instructions. Fluorescent signal relative to cytosolic Ca^2+ concentration was recorded over time at room temperature in FLIPR Tetra reader. […] Then, 50 nM MDL29,951, a GPR17 agonist, was added to the cells. Inhibitory effects of varying concentrations test compounds were measured and resulting plC50s were determined. […] Analysis and curve fitting were performed in ActivityBase XE using XLfit 4-parameter logistic equation y=A+((B−A)/(1+((C/x)^D))) where A, B, C and D stand for minimum y, maximum y, IC50 and slope, respectively.
The activities of the Example compounds tested are depicted in the table in Section B2B below. The activity ranges A, B and C refer to plC50 values in the Ca^2+ assay as follows: “A”: plC50<7.5, “B”: plC50 7.5<x≤ 8.5, “C”: plC50>8.5

T1 sequence (Q13304 whole entry): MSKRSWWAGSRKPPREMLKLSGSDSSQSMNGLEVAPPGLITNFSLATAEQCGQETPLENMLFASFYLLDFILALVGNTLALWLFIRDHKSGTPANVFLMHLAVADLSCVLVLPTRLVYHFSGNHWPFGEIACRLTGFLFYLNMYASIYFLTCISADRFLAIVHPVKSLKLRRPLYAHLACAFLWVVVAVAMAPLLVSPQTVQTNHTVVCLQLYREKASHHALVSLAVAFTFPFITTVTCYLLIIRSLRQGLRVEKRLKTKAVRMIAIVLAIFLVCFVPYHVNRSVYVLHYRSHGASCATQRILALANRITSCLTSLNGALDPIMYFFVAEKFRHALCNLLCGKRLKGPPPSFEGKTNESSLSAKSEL

| SMILES | IC50 [µM] |
| --- | --- |
| CS(=O)(=O)c1ccc2c(S(=O)(=O)Nc3cc(F)ccc3F)c[nH]c2c1 [Compound I-28, N-(2,5-difluorophenyl)-6-(methylsulfonyl)-1H-indole-3-sulfonamide] | > 0.0316 |
| O=S(=O)(Nc1ccc(F)cn1)c1c[nH]c2cc(Cl)ccc12 [Compound I-62, 6-chloro-N-(5-fluoropyriidn-2-yl)-1H-indole-3-sulfonamide] | > 0.0316 |
| O=S(=O)(Nc1ccc(Cl)cc1F)c1c[nH]c2c1ccc1ccccc12 [Compound I-45, N-(4-chloro-2-fluorophenyl)-1H-benzo[g]indole-3-sulfonamide] | > 0.0316 |
| Cc1ccc2c(S(=O)(=O)Nc3cc(F)ccc3F)c[nH]c2c1 [Compound I-32, N-(2,5-difluorophenyl)-6-methyl-1H-indole-3-sulfonamide] | > 0.0316 |
| O=S(=O)(Nc1ccc2c(c1)OCO2)c1c[nH]c2cc(Cl)ccc12 [Compound I-5, N-(1,3-benzodioxol-5-yl)-6-chloro-1H-indole-3-sulfonamide] | > 0.0316 |
| C#Cc1ccc(NS(=O)(=O)c2c[nH]c3cc(S(C)(=O)=O)ccc23)cc1 [Compound I-34, N-(4-ethynylphenyl)-6-(methylsulfonyl)-1H-indole-3-sulfonamide] | > 0.0316 |
| O=S(=O)(Nc1cc(F)cc(F)c1)c1c[nH]c2cc(Cl)ccc12 [Compound I-21, 6-chloro-N-(3,5-difluorophenyl)-1H-indole-3-sulfonamide] | > 0.0316 |
| N#Cc1ccc2c(S(=O)(=O)Nc3cc(F)c(F)cc3F)c[nH]c2c1 [Compound I-75, 6-cyano-N-(2,4,5-trifluorophenyl)-1H-indole-3-sulfonamide] | > 0.0316 |
| O=S(=O)(Nc1cccc2nsnc12)c1c[nH]c2c3c(ccc12)CCC3 [Compound I-74] | > 0.0316 |
| Cc1ccc(NS(=O)(=O)c2c[nH]c3cc(Cl)ccc23)cc1F [Compound I-7, 6-chloro-N-(3-fluoro-4-methylphenyl)-1H-indole-3-sulfonamide] | > 0.0316 |
| O=S(=O)(Nc1cccc(Cl)n1)c1c[nH]c2cc(Cl)ccc12 [Compound I-57, 6-chloro-N-(6-chloropyridin-2-yl)-1H-indole-3-sulfonamide] | > 0.0316 |
| O=S(=O)(Nc1ccc2ncsc2c1)c1c[nH]c2cc(Cl)ccc12 [Compound I-3, N-(1,3-benzothiazol-6-yl)-6-chloro-1H-indole-3-sulfonamide] | > 0.0316 |
| N#Cc1ccc(NS(=O)(=O)c2c[nH]c3ccc(Br)cc23)cc1 [Compound I-13, 5-bromo-N-(4-cyanophenyl)-1H-indole-3-sulfonamide] | > 0.0316 |
| O=S(=O)(Nc1cc(Cl)cc(Cl)n1)c1c[nH]c2cc(Cl)ccc12 [Compound I-40, 6-chloro-N-(4,6-dichloropyridin-2-yl)-1H-indole-3-sulfonamide] | > 0.0316 |
| N#Cc1ccc2c(S(=O)(=O)Nc3cc4c(cc3F)OC(F)(F)O4)c[nH]c2c1 [Compound I-68, 6-cyano-N-(2,2,6-trifluoro-1,3-benzodioxol-5-yl)-1H-indole-3-sulfonamide] | > 0.0316 |

Results, then the compound that gave them:

| IC50 [µM] | SMILES |
| --- | --- |
| < 0.00316 | O=S(=O)(Nc1cccc2nsnc12)c1c[nH]c2cc(Cl)ccc12 [Compound I-109, N-(2,1,3-benzothiadiazol-4-yl)-6-chloro-1H-indole-3-sulfonamide] |
| < 0.00316 | COc1cc(CC#N)c(F)nc1NS(=O)(=O)c1c[nH]c2cc(Cl)ccc12 [Compound I-350, 6-chloro-N-[5-(cyanomethyl)-6-fluoro-3-methoxypyridin-2-yl]-1H-indole-3-sulfonamide] |
| 0.00316 to 0.0316 | Cc1ccc2c(S(=O)(=O)Nc3cc(F)c(C#N)cc3F)c[nH]c2c1 [Compound I-187, N-(4-cyano-2,5-difluorophenyl)-6-methyl-1H-indole-3-sulfonamide] |
| > 0.0316 | O=S(=O)(Nc1cc(F)c(F)cc1F)c1c[nH]c2ncc(I)cc12 [Compound I-103, 5-iodo-N-(2,4,5-trifluorophenyl)-1H-pyrrolo[2,3-b]pyridine-3-sulfonamide] |
| > 0.0316 | O=S(=O)(Nc1ncccc1F)c1c[nH]c2cc(Cl)ccc12 [Compound I-128, 6-chloro-N-(3-fluoropyridin-2-yl)-1H-indole-3-sulfonamide] |
| 0.00316 to 0.0316 | N#Cc1cc(F)c(NS(=O)(=O)c2c[nH]c3c(Br)cccc23)cc1F [Compound I-167, 7-bromo-N-(4-cyano-2,5-difluorophenyl)-1H-indole-3-sulfonamide] |
| < 0.00316 | COc1nc(NS(=O)(=O)c2c[nH]c3c(Br)c(Cl)ccc23)c(F)cc1CC#N [Compound I-322, 7-bromo-6-chloro-N-[5-(cyanomethyl)-3-fluoro-6-methoxypyridin-2-yl]-1H-indole-3-sulfonamide] |
| > 0.0316 | N#Cc1ccc(NS(=O)(=O)c2c[nH]c3ccccc23)c(F)c1 [Compound I-105, N-(4-cyano-2-fluorophenyl)-1H-indole-3-sulfonamide] |
| 0.00316 to 0.0316 | N#Cc1ccc(NS(=O)(=O)c2c[nH]c3cc(F)cc(F)c23)c(F)c1 [Compound I-168, N-(4-cyano-2-fluorophenyl)-4,6-difluoro-1H-indole-3-sulfonamide] |
| > 0.0316 | COc1c(Cl)ccc2c(S(=O)(=O)Nc3cc(F)c(F)cc3F)c[nH]c12 [Compound I-196, 6-chloro-7-methoxy-N-(2,4,5-trifluorophenyl)-1H-indole-3-sulfonamide] |
| > 0.0316 | O=S(=O)(Nc1ccc2nsnc2c1)c1c[nH]c2c3c(ccc12)CCC3 [Compound I-158, N-(2,1,3-benzothiadiazol-5-yl)-1,6,7,8-tetrahydrocyclopenta[g]indole-3-sulfonamide] |
| > 0.0316 | O=S(=O)(Nc1ccc(Br)c2c1OC(F)(F)O2)c1c[nH]c2cc(Cl)ccc12 [Compound I-130, N-(7-bromo-2,2-difluoro-1,3-benzodioxol-4-yl)-6-chloro-1H-indole-3-sulfonamide] |
| > 0.0316 | C#Cc1ccc(NS(=O)(=O)c2c[nH]c3nc(Cl)ccc23)cc1 [Compound I-84, 6-chloro-N-(4-ethynylphenyl)-1H-pyrrolo[2,3-b]pyridine-3-sulfonamide] |
| > 0.0316 | O=S(=O)(Nc1ccc2nsnc2c1)c1c[nH]c2cc(F)ccc12 [Compound I-169, N-(2,1,3-benzothiadiazol-5-yl)-6-fluoro-1H-indole-3-sulfonamide] |
| > 0.0316 | O=S(=O)(Nc1ccc(F)cc1F)c1c[nH]c2ncc(I)cc12 [Compound I-82, N-(2,4-difluorophenyl)-5-iodo-1H-pyrrolo[2,3-b]pyridine-3-sulfonamide] |
| > 0.0316 | O=S(=O)(Nc1ccc(F)c2nonc12)c1c[nH]c2cc(Cl)ccc12 [Compound I-197, 6-chloro-N-(7-fluoro-2,1,3-benzoxadiazol-4-yl)-1H-indole-3-sulfonamide] |
| > 0.0316 | COc1ccc(-c2ccc3c(S(=O)(=O)Nc4ccc(C#N)cc4F)c[nH]c3c2)cc1 [Compound I-232, N-(4-cyano-2-fluorophenyl)-6-(4-methoxyphenyl)-1H-indole-3-sulfonamide] |
| > 0.0316 | N#Cc1ccc(NS(=O)(=O)c2c[nH]c3cc(F)c(F)cc23)cc1 [Compound I-120, N-(4-cyanophenyl)-5,6-difluoro-1H-indole-3-sulfonamide] |
| > 0.0316 | O=S(=O)(Nc1cc(F)ccc1F)c1c[nH]c2ncc(I)cc12 [Compound I-81, N-(2,5-difluorophenyl)-5-iodo-1H-pyrrolo[2,3-b]pyridine-3-sulfonamide] |

These compounds were tested against T1, GPR17 (assay: cAMP accumulation functional assay (HTRF, Schild analysis)). Conditions: CHO hGPR17 cells, Schild analysis vs MDL29,951, 5 μM forskolin, read-out: cAMP assay pA2 (converted).
Format: cell-based
Set-up: host or cells: Flp-In T-REx CHO
Experimental: as §1
GPR17 activation can also recruit Gi-type G-protein signaling, resulting in a decrease of intracellular cyclic adenosine monophosphate (cAMP). Intracellular cAMP changes can be measured using the HTRF cAMP dynamic assay kit from CisBio (Codolet, France). Using homogenous time-resolved fluorescence technology (HTRF), the assay is based on competition between native cAMP produced by cells and cAMP labelled with the dye d2. The tracer binding was determined by an anti-cAMP antibody labeled with cryptate.
CHO hGPR17 were detached with PBS containing EDTA and dispatched in black 384-well plates with 5,000 cells per well. Cells were first incubated for 30 minutes at room temperature in HBSS Hepes (pH 7.4) containing vehicle or varying concentrations of test GPR17 antagonist/inverse agonist compounds. […] After 60 minutes incubation at room temperature, the reaction is terminated and the cells lysed by adding the d2 detection reagent and the cryptate reagent in 10 μL lysis buffer each according to manufacturer's instructions. After 60 minutes incubation, changes in cAMP concentrations are measured according to manufacturer's instructions using an Envision plate reader with laser excitation. All incubations were performed in duplicate. Data was analyzed using GraphPad Prism software using the 4-parameter logistic equation to measure MDL29,951 pEC50s in absence and presence of GPR17 antagonist/inverse agonist test compounds. Dose ratio (DR) were plotted against antagonist concentrations and Schild analysis provided estimated affinity pA2 of GPR17 antagonist/inverse agonist test compounds.
The activities of the Example compounds tested are depicted in the table below. The activity ranges A, B and C refer to pA2 values in the cAMP assay as follows: “A”: pA2<7.5, “B”: pA2 7.5<x≤8.5, “C”: pA2>8.5.

| Kb [µM] | SMILES |
| --- | --- |
| 0.00316 to 0.0316 | O=S(=O)(Nc1cccc2nsnc12)c1c[nH]c2cc(Cl)ccc12 [Compound I-109, N-(2,1,3-benzothiadiazol-4-yl)-6-chloro-1H-indole-3-sulfonamide] |
| < 0.00316 | COc1cc(CC#N)c(F)nc1NS(=O)(=O)c1c[nH]c2cc(Cl)ccc12 [Compound I-350, 6-chloro-N-[5-(cyanomethyl)-6-fluoro-3-methoxypyridin-2-yl]-1H-indole-3-sulfonamide] |
